According to patent US9409880B2, “Modulators of TLR3/dsRNA complex and uses thereof” (The Regents of the University of Colorado, a body corporate, priority 2011, dated 2016):
“Also recorded” adds a separate entry of the source.

Columns and labels:
TLR4 = biological target: T1, TLR4 (Mus musculus, UniProt Q9QUK6); experiment: RAW264.7 cell nitric oxide TLR selectivity assay (LPS); format: cell-based; settings: 27 μM
T1 construct: endogenous in cells; host or cells: RAW 264.7
T1 sequence (Q9QUK6 26-835): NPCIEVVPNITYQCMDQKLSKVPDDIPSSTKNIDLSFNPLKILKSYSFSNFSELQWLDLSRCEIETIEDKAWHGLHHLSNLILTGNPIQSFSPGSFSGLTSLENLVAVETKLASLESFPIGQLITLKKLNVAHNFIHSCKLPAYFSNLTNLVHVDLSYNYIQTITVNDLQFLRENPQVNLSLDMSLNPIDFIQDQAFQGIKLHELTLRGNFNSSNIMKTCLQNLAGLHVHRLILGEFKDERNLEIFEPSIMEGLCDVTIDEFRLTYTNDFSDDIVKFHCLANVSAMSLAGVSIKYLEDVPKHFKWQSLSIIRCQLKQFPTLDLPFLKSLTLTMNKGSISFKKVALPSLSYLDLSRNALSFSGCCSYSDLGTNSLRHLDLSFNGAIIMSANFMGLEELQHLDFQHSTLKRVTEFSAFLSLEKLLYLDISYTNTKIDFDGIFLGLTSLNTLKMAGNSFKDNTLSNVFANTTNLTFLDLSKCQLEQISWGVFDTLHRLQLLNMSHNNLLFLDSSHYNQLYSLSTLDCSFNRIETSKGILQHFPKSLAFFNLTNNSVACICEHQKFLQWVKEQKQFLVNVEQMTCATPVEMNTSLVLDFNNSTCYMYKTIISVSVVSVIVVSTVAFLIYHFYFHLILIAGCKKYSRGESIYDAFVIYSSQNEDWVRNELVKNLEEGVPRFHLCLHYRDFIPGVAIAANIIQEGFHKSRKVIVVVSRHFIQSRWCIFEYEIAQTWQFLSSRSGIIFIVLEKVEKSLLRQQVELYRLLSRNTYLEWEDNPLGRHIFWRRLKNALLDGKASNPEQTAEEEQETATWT
T1 sequence (Q9JHF9 19-160 partner): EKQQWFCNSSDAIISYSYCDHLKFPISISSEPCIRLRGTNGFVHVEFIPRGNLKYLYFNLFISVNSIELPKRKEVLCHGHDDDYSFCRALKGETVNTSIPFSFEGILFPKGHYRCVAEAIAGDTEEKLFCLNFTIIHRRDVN

RANTES = experiment: In vivo poly IC-induced RANTES production; set-up: species or system mice
TLR3 = biological target: T2, TLR3 (Mus musculus, UniProt Q99MB1); experiment: In vitro TLR3 inhibition assay: Poly IC-induced NO production in RAW 264.7 cells; format: cell-based
T2 construct: endogenous in cells; host or cells: RAW 264.7
T2 sequence (Q99MB1 26-905): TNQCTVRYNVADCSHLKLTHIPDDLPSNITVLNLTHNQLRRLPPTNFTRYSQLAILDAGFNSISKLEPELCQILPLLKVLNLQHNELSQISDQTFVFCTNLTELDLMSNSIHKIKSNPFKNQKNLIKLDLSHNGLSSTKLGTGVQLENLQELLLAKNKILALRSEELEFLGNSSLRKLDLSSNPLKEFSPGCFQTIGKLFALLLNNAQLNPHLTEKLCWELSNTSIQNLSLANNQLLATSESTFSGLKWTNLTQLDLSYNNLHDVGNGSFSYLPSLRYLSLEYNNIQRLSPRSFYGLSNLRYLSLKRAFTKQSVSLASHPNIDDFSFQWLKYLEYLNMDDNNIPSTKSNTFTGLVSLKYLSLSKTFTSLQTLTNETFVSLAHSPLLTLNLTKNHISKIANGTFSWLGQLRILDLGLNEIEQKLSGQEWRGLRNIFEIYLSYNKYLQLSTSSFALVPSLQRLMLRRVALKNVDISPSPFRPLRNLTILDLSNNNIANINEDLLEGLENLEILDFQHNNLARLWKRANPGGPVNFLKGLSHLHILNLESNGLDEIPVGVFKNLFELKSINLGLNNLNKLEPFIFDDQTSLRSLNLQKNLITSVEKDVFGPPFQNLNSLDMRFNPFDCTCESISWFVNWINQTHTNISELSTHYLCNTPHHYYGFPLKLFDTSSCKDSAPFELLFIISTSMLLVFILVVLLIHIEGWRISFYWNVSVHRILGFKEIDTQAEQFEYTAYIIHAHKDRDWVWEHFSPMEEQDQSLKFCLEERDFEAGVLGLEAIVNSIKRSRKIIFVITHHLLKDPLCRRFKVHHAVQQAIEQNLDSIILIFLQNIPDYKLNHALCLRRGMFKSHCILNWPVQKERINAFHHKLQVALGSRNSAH
Description: The initial hits (Figure A) were first evaluated using the present inventors' previously established high-throughput cell assay of TLR3 activation. See, for example, ACS Med. Chem. Lett. 2010, 1, 194 and Bioorg. Med. Chem. Lett., 2010, 20, 5411. Poly IC (Polyriboinosinic:polyribocytidylic acid) has been reported to selectively activate TLR3 signaling, resulting in the activation of nitric oxide synthase and the production nitric oxide (NO) in RAW 264.7 macrophage cells. The NO level was monitored as an indicator of Poly IC-induced TLR3 activation to evaluate the drug's inhibitory activity.
RAW 264.7 (Mouse leukaemic monocyte macrophage cell line) cells were grown in RPMI 1640 medium, supplemented with 10% FBS, penicillin (100 U/mL) and streptomycin ([…]). RAW cells were then planted in 96-well plates at 100,000 cells per well and grown for 24 h in the media descried previously at 37° C. in a 5% CO2 humidified incubator. After 24 h, non-adherent cells and media were removed and replaced with fresh RPMI 1640 medium (only RPMI). The adherent macrophages were treated with high molecular weight polyinosine-polycytidylic acid (Poly IC) (10 μg/mL) (Invivogen), an agonist of TLR3, and then added different concentrates of potential inhibitor. Two rows were only treated with Poly IC as an control. Plates were then incubated for an additional 24 h. Following incubation 100 μL of media was removed and added to flat black 96-well microfluor plates (Thermo Scientific, MA, USA). To each well, 10 μL of 2,3-diaminonaphthalene (0.05 mg/mL in 0.62 M aqueous HCl solution) was added and incubated for 15 min in the dark. The reaction was quenched by addition of 5 μL of a 3 M aqueous NaOH solution and the plate was read on Beckman Coulter DTX880 reader (Beckman Coulter, Calif., USA) with excitation at 365 nm and emission at 450 nm. The nitrite (a stable metabolite of nitric oxide) concentration was determined from a nitrite standard curve. The inhibition rate (%) of NO release was determined using the following formula: Inhibition (%)=[Poly IC(OD450)−Compounds (OD450)]/[Poly IC(OD450)−Control (OD450)]×100. The IC50 values for both inhibition and cytotoxicity were determined graphically using software Origin v7.5.

- TLR3 signaling in specificity test (TLR3; 27 μM, Poly IC): selectively inhibited TLR3 signaling
- increase in potency compared to T5626448 (TLR3; 4a vs T5626448): ~45 fold
- IC50 (TLR3; Poly IC-induced TLR3 activation, cell assay): 3.44 ± 0.41 µM
Compound: O=C(N[C@H](Cc1ccccc1)C(=O)O)c1sc2cc(F)ccc2c1Cl [Compound 4a, (R)-2-(3-chloro-6-fluorobenzo[b]thiophene-2-carboxamido)-3-phenylpropanoic acid]
- effect on TLR4 signaling (TLR4): without significantly affecting other TLRs
- RANTES production with increased pre-treatment doses (RANTES; pretreatment before poly IC i.v.): decrease of RANTES in a dose-dependent manner; also recorded: decreasing RANTES production
- RANTES production with increasing poly IC doses (RANTES; pretreatment with 27 μg): significant decrease in RANTES production; also recorded: decreased RANTES production
